Measurements: patent US20220054494A1, “METHODS FOR TREATING BLADDER AND URETHRA DYSFUNCTION AND DISEASE” (University of Pittsburgh - Of the Commonwealth System of …, priority 2019, published 2022)
Entries after “also recorded” stand apart in the source; their conditions may differ.

Key:
parkin = assay: Western immunoblotting, parkin; assay type: in vivo, rat; settings: aged rats; oral 8-AG 5 mg/kg/day, 6 weeks
Protocol: Western immunoblotting: One half of each bladder preparation was homogenized using Lysing Matrix D in a FastPrep 24 instrument (MP Biomedicals, Solon, Ohio) in HBSS (5 mM KCl, 0.3 mM KH2PO4, 138 mM NaCl, 4 mM NaHO3, 0.3 mM Na2HCO3, 0.3 mM Na2HPO4, 5.6 mM glucose and 10 mM Hepes, pH 7.4) containing complete protease inhibitor cocktail (1 tablet/10 ml, ROCHE®, Indianapolis, Ind.)) and phosphatase inhibitor cocktail (SIGMA®, 1:100). After centrifugation (13000 rpm; 15 min at 4° C.), the membrane protein fraction was prepared by suspending the membrane pellets in lysis buffer containing 0.3 M NaCl, 50 mM Tris-HCl (pH 7.6) and 0.5% Triton X-100 and the same concentration of protease inhibitors as above. The suspensions were incubated on ice and centrifuged (13000 rpm; 15 min at 4° C.). The protein concentrations of the combined supernatants were determined using the PIERCE® BCA protein assay (THERMO SCIENTIFIC®, Rockford, Ill.). […] As a loading control, total protein per sample was determined using Bio-Rad® Stain Free SDS-PAGE gel technology. UV-activated protein fluorescence was imaged on a CHEMIDOC® MP (BIO-RAD®). […] The volume (intensity) of each protein species was determined and normalized to total protein using Image Lab software (BIO-RAD®).

AVP receptor V1a = assay: Western immunoblotting, kidney V1a vasopressin receptor; assay type: in vivo, rat; settings: aged Fisher 344 rats; 8-AG 5 mg kg/day via drinking water, 1 month
Protocol: Western immunoblotting and transmission electron microscopy: Following these testing paradigms, rats were deeply anesthetized, bladders were removed, and one half of each bladder (using the smooth muscle layer) was homogenized using Lysing Matrix D in a FASTPREP-24™ instrument (MP BIOMEDICALS™, Solon, Ohio) in HBSS (5 mM KCl, 0.3 mM KH2PO4, 138 mM NaCl, 4 mM NaHO3, 0.3 mM Na2HCO3, 0.3 mM Na2HPO4, 5.6 mM glucose and 10 mM Hepes, pH 7.4) containing complete protease inhibitor cocktail (1 tablet/10 ml, ROCHE™, Indianapolis, Ind.) and phosphatase inhibitor cocktail (SIGMA®, 1:100). Whole rat kidney was also homogenized using the same procedure. After centrifugation (13000 rpm; 15 min at 4° C.), the membrane protein fraction was prepared by suspending the membrane pellets in lysis buffer containing 0.3 M NaCl, 50 mM Tris-HCl (pH 7.6), 0.5% Triton X-100, and the same concentration of protease inhibitors as above. […] The protein concentrations of the combined supernatants were determined using the PIERCE™ BCA protein assay (THERMO SCIENTIFIC™, Rockford, Ill.). […] As a loading control, total protein per sample was determined using BIO-RAD™ Stain Free SDS-PAGE gel technology. UV-activated protein fluorescence was imaged on a CHEMIDOC™ MP (BIO-RAD™). […] The volume (intensity) of each protein species was determined and normalized to total protein using Image Lab software (BIO-RAD™).

## Nc1nc2[nH]c(N)nc2c(=O)[nH]1 [8-AG, 8-Aminoguanine]
parkin
  parkin in bladder mucosa: reversed or restored to levels similar to the younger state; also recorded: restored changes similar to a younger state
AVP receptor V1a
  V1a vasopressin receptor in kidney: restored to a younger state; also recorded: restored to levels similar to the younger state
